The source of these data is US20070060591A1, “Chemokine receptor binding heterocyclic compounds” (priority 1999, published 2007).

Converted amounts (≈) assume the structure as drawn. Like-named read-outs stand apart in the source and are kept apart here.

The test system of series [1] is MT-4 cells. Kind of series: in vitro. It is filed as cell-based. The protocol: (§1) The compounds of the invention were tested in a screen by the MTT method (J. Virol. Methods […] (1988)). MT-4 cells (2.5×10^4/well) were challenged with HIV-1 (HTLV-IIIB) or HIV-2 (LAV-2 ROD) at a concentration of 100 CCID50 and incubated in the presence of various concentrations of the test compounds, which were added immediately after challenge with the virus. After 5 days culture at 37° C. in a CO2 incubator, the number of viable cells was assessed by the MTT (tetrazolium) method. […] The potential therapeutic usefulness was assessed by calculating a Selectivity Index (SI) corresponding to the ratio of CC50 to EC50.

The test system of series [2] is HIV-1 (HTLV-IIIB). Put plainly: microbe, parasite or virus in culture. The series is classed as cell-based. To be noted: MT-4 cells; 100 CCID50; 5 days; MTT. The protocol:
as §1

Series [3] concerns HIV-2 (LAV-2 ROD). Kind of series: Anti-HIV-2 screen by the MTT method in MT-4 cells. Particulars: 100 CCID50, 5 days. It is filed as cell-based. As for the experimental part: as §1
Series [4] has as its target T1, CXCR-4 (Homo sapiens, UniProt P61073).
T1 construct: endogenous in cells; host or cells: SUP-T1 cells
Kind of series: Inhibition of mAb 12G5 binding to CXCR-4 in SUP-T1 cells.

For series [5], the target named is T1, CXCR-4. Put plainly: Inhibition of signal transduction (Ca2+ flux) induced by SDF-1α binding to CXCR-4 on SUP-T1 cells. The series is classed as cell-based. To be noted: 1 μg/ml, SDF-1α induced, read-out: % Inhibition of Ca2+ flux (conc).
In series [6] the test system is HIV-1 BaL. Kind of series: Inhibition of infection of U87.CD4.CCR5 by HIV-1 BaL. The series is classed as cell-based. To be noted: U87.CD4.CCR5 cells.
For series [7] the following is noted: crosslinker bond, 14-membered ring, Cs2CO3, DMF.
The conditions of series [8]: from CCOP(=O)(OCC)N(CCCCCCCNC(=O)CBr)CCNS(=O)(=O)c1ccccc1[N+](=O)[O-]; amine bond; K2CO3; acetonitrile; 0.6 mM; 60.0 °C; 24.0 h.
In series [9] the test system is DBA/1 IFN-γ RKO mice.
Description: The control group consisted of ten mice that were injected with collagen as discussed below.
The experiments were performed in 8- to 12-week old mice, but in each experiment, the mutant and wild-type mice were age-matched with a 5 day limit. The male to female ratio was kept between 0.8 and 1.3 in each experimental group.
Native chicken collagen type II (EPC, Owensvillle, Mo.) was dissolved in 0.05 M acetic acid at 2 mg/ml by stirring overnight at 6° C., and emulsified in an equal volume of incomplete (IFA) or complete Freund's adjuvant (CFA) containing 1.5 mg/ml heat killed Mycobacterium butyricum (Difco, Detroit, Mich.). Mice were sensitized with a single 100 μl intradermal injection of the emulsion at the base of the tail. Mice were examined daily for signs of arthritis. The disease severity was recorded following a scoring system for each limb. Score 0: normal; score 1: redness and/or swelling in one joint; score 2: redness and/or swelling in more than one joint; score 3: redness and/or welling in the entire paw; score 4: deformity and/or ankylosis.

T1 sequence (P61073 whole entry): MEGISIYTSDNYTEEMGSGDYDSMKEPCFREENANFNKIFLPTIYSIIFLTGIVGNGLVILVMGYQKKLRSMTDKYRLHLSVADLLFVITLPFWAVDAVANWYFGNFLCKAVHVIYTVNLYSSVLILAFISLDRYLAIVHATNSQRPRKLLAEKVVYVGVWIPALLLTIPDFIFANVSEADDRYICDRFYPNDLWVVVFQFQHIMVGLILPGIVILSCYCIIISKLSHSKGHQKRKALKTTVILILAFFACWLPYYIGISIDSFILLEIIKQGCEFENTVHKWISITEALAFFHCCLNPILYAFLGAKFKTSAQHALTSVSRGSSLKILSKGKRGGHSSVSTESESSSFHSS

For `c1csc(CNCc2ccc(CN3CCCNCCNCCCNCC3)cc2)c1` [AMD3516, N-[1,4,8,11-Tetraazacyclotetradecanyl-1,4-phenylenebis(methylene)]-2-(amino-methyl)thiophene], in series [1], the CC50 is 158 µg/mL (≈ 380 µM). Moreover, the “EC50 HIV-1 (IIIB)” value in series [2] worked out at 0.7 µg/mL (≈ 1.68 µM). Moreover, in series [3], the “EC50 HIV-2” value is 9.8 µg/mL (≈ 23.6 µM).

`c1cc(CNCc2ccc(CN3CCCNCCNCCCNCC3)cc2)ccn1` [AMD3500]: the CC50 in [1] is >250 µg/mL. Also, the “EC50 HIV-1 (IIIB)” value in series [2] amounted to 0.6 µg/mL (≈ 1.46 µM). In [3], the “EC50 HIV-2” value was 10.3 µg/mL (≈ 25.1 µM).

For the compound `c1ccc(CNCc2ccc(CN3CCNCCCCCCCNCC3)cc2)nc1` [AMD7049, N-[4-(1,4,7-Triazacyclotetra-decanyl)-1,4-phenylenebis(methylene)]-2-(aminomethyl)pyridine], the IC50 in [4] is 127 nM. Also, the inhibition at 1 µg/mL in [5] turned out to be 100%.

`c1ccc(CNCc2ccc(CN3CCCNCCNCCCNCC3)cc2)cc1` [AMD3529, N-[1,4,8,11-Tetraazacyclotetradecanyl-1,4-phenylenebis(methylene)]-benzylamine] gave a 50% cytotoxic concentration (CC50) in [1] of 130 µg/mL (≈ 317 µM). In addition, the “EC50 HIV-1 (IIIB)” value in series [2] is 0.4 µg/mL (≈ 0.977 µM). The “EC50 HIV-2” value in [3] stood at 2.6 µg/mL (≈ 6.35 µM).

In series [1], `CN(Cc1ccc(CN2CCCNCCNCCCNCC2)cc1)Cc1ccccn1` [AMD3538, N-[1,4,8,11-Tetraazacyclotetradecanyl-1,4-phenylenebis(methylene)]-N-methyl-2-(aminomethyl)pyridine] had a CC50 of 209 µg/mL (≈ 492 µM). In series [2], the “EC50 HIV-1 (IIIB)” value is 0.1 µg/mL (≈ 0.235 µM). Further, the “EC50 HIV-2” value in series [3] was found to be 6.7 µg/mL (≈ 15.8 µM).

SDF-1α: in [4], the “Inhibition of mAb 12G5 binding IC50” value stood at 0.27 µg/mL.

In series [4], `c1ccc(CNCc2ccc(CN3CCNCCc4cccc(c4)CCNCC3)cc2)nc1` [AMD7051, N-[7-(4,7,10-Triazabicyclo[13.3.1]heptadeca-1(17),13,15-trienyl)-1,4-phenylenebis(methylene)]-2-(aminomethyl)pyridine] gave an IC50 of 15.8 nM. Further, the inhibition at 1 µg/mL in [5] stood at 100%.

Compound `c1nc(CCNCc2ccc(CN3CCCNCCNCCCNCC3)cc2)c[nH]1` [AMD3543, N-[1,4,8,11-Tetraazacyclotetradecanyl-1,4-phenylenebis(methylene)]-4-(amino-ethyl)imidazole] gave a 50% cytotoxic concentration (CC50) in series [1] of 239 µg/mL (≈ 578 µM). For the same compound, the “EC50 HIV-1 (IIIB)” value in series [2] turned out to be 0.2 µg/mL (≈ 0.484 µM). Also, in series [3], the “EC50 HIV-2” value was 1.0 µg/mL (≈ 2.42 µM).

Regarding `c1ccc(CNCc2ccc(CN3CCCCCCCNCCNCC3)cc2)nc1` [AMD7059, N-[1-(1,4,7-Triazacyclotetra-decanyl)-1,4-phenylenebis(methylene)]-2-(aminomethyl)pyridine], the half-inhibitory concentration (IC50) in series [4] was > 2440 nM. Moreover, the inhibition at 1 µg/mL in series [5] was determined as 36%.

As to `c1ccc(N2CCN(Cc3ccc(CN4CCCNCCNCCCNCC4)cc3)CC2)cc1` [AMD3526, 1-[1,4,8,11-Tetraazacyclotetradecanyl-1,4-phenylenebis(methylene)]-4-phenylpiperazine], the “IC50 against infection of U87.CD4.CCR5 by HIV-1 BaL” value (“IC50 against infection” for short) in series [6] was 82 µg/mL.

For the compound `Clc1cc(CN2CCCNCCNCCCNCC2)cc(Cl)n1` [AMD3451, 1-[2,6-Dichloropyrid-4-yl(methylene)]-1,4,8,11-tetraazacyclotetradecane], the “IC50 against infection” value in series [6] turned out to be 8.9 µg/mL.

The compound “bis(3-nitrobenzenesulfonylaminopropyl)ether? + N-(diethoxyphosphoryl)-O,O′-bis(2-methylsulfonyl)diethanolamine” registered a ring closure, isolated yield in [7] (the molecule shown is the open-chain precursor, 18.0 mM, 80.0 °C) of 55%.

`CCOP(=O)(OCC)N1CCCCCCCNC(=O)CN(S(=O)(=O)c2ccccc2[N+](=O)[O-])CC1` gave a ring closure, yield of all isomers in series [8] of 90%.

For the compound `CCOP(=O)(OCC)N1CCN(S(=O)(=O)c2ccccc2[N+](=O)[O-])CCCC(F)CCCN(S(=O)(=O)c2ccccc2[N+](=O)[O-])CC1`, the ring closure, isolated yield in series [7] (from bis-[2-(2-nitro-benzenesulfonylamino)-ethyl]-phosphoramidic acid diethyl ester + 1,7-bis(toluene-4-sulfonic acid)-4-fluoro-heptyl-ester, 15.9 mM, 85.0 °C) is 55%.

As to `Nc1ccccc1CNCc1ccc(CN2CCCNCCNCCCNCC2)cc1` [AMD3517, N-[1,4,8,11-Tetraazacyclotetradecanyl-1,4-phenylenebis(methylene)]-2-amino-benzylamine], the CC50 in series [1] came out at 153 µg/mL (≈ 360 µM). Moreover, the “EC50 HIV-1 (IIIB)” value in series [2] amounted to 0.8 µg/mL (≈ 1.88 µM). Also, the “EC50 HIV-2” value in series [3] turned out to be 10.6 µg/mL (≈ 25 µM).

As to `Clc1ccc(CN2CCCNCCNCCCNCC2)cn1` [AMD3454, 1-[2-Chloropyrid-5-yl(methylene)]-1,4,8,11-tetraazacyclotetradecane], the “IC50 against infection” value in [6] was 32.3 µg/mL.

Turning to `Cc1cnc(CNCc2ccc(CN3CCCNCCNCCCNCC3)cc2)cn1` [AMD3498, N-[1,4,8,11-Tetraazacyclotetradecanyl-1,4-phenylenebis(methylene)]-(2-amino-methyl-5-methyl)pyrazine], the 50% cytotoxic concentration (CC50) in series [1] was >250 µg/mL. In series [2], the “EC50 HIV-1 (IIIB)” value worked out at 0.2 µg/mL (≈ 0.47 µM). Further, the “EC50 HIV-2” value in series [3] came to 7.1 µg/mL (≈ 16.7 µM).

Consider `Nc1ccc(CNCc2ccc(CN3CCCNCCNCCCNCC3)cc2)cc1` [AMD3544, N-[1,4,8,11-Tetraazacyclotetradecanyl-1,4-Ihenylenebis(methylene)]-4-amino-benzylamine], for which the CC50 in [1] was found to be 222 µg/mL (≈ 523 µM). Also, in series [2], the “EC50 HIV-1 (IIIB)” value came out at 0.7 µg/mL (≈ 1.65 µM). Also, the “EC50 HIV-2” value in [3] was 3.7 µg/mL (≈ 8.71 µM).

Take `c1cc(CN2CCCNCCNCCCNCC2)ccc1CN1CCCNCCNCCCNCC1` [AMD3100]: the animals demonstrating arthritis in series [9] (14 days after treatment, i.v. osmotic pump, 5 mg/ml over 14 days, control 7 of ten) is listed as 1 of the 8. Further, the “body weight loss of treated animals compared with control animals” value in series [9] (collagen-injected mice) is on record as “did not demonstrate any significant body weight loss”. In addition, the “time until the single treated animal developed arthritic pathology” value in series [9] (post-treatment) is listed as > 20 days. Moreover, the 50% inhibitory concentration (IC50) in [6] (Human immunodeficiency virus 1, BAL, read-out: IC50 against infection of U87.CD4.CCR5 by HIV-1 BaL) is > 100 µg/mL.

For the compound “bis(3-nitrobenzenesulfonylaminopropyl)ether + Methanesulfonic acid, 5-methanesulfonyloxy-3-(4-{[( [...]”, the ring closure, isolated yield in series [7] (the molecule shown is the open-chain precursor, 6.3 mM, 80.0 °C) was 51%.

In series [1], `SCCNCc1ccc(CN2CCCNCCNCCCNCC2)cc1` [AMD3530, N-[1,4,8,11-Tetraazacyclotetradecanyl-1,4-phenylenebis(methylene)]-2-(amino-ethyl)mercaptan] yielded a CC50 of 175 µg/mL (≈ 461 µM). The “EC50 HIV-1 (IIIB)” value in series [2] came out at 0.5 µg/mL (≈ 1.32 µM). The “EC50 HIV-2” value in series [3] is 2.0 µg/mL (≈ 5.27 µM).

The compound `c1ccc(CNCc2ccc(CN3CCNCCNCCc4cccc(n4)CC3)cc2)nc1` [AMD7063, N-[4-[4,7,10,17-Tetraazabicyclo[13.3.1]heptadeca-1(17),13,15-trienyl]-1,4-phenylenebis(methylene)]-2-(aminomethyl)pyridine] gave a half-inhibitory concentration (IC50) in [4] of 20.2 nM. The inhibition at 1 µg/mL in series [5] amounted to 100%.

Turning to `c1ccc(CNCc2ccc(CN3CCNCCc4cccc(n4)CCNCC3)cc2)nc1` [AMD7050, N-[7-(4,7,10,17-Tetraazabicyclo[13.3.1]heptadeca-1(17),13,15-trienyl)-1,4-phenylenebis(methylene)]-2-(aminomethyl)pyridine], the 50% inhibitory concentration (IC50) in series [4] is 2.25 nM. The inhibition at 1 µg/mL in series [5] came out at 100%.

As for `c1ncc2ncn(Cc3ccc(CN4CCCNCCNCCCNCC4)cc3)c2n1` [AMD3472, N-[1,4,8,11-Tetraazacyclotetradecanyl-1,4-phenylenebis(methylene)]-purine], the “IC50 against infection” value in [6] was found to be 45.4 µg/mL.

Consider `c1ccc(CNCc2ccc(CN3CCNCCNCCc4cccc(c4)CC3)cc2)nc1` [AMD7058, N-[4-[4,7,10-Triazabicyclo[13.3.1]heptadeca-1(17),13,15-trienyl]-1,4-phenylenebis(methylene)]-2-(aminomethyl)pyridine], for which, in series [4], the half-maximal inhibitory concentration (IC50) was > 2250 nM. In addition, the inhibition at 1 µg/mL in series [5] stood at 44%.

`CCOP(=O)(OCC)N1CCN(S(=O)(=O)c2ccccc2[N+](=O)[O-])CCCC(F)(F)CCCN(S(=O)(=O)c2ccccc2[N+](=O)[O-])CC1`: the ring closure, isolated yield in [7] (from bis-[2-(2-nitrobenzenesulfonylamino)-ethyl]-phosphoramidic acid diethyl ester + 1,7-bis(toluene-4-sulfonic acid)-4,4-difluoro-heptyl-ester, 15.4 mM, 85.0 °C) stood at 19%.

For `c1ccc(CCNCc2ccc(CN3CCCNCCNCCCNCC3)cc2)nc1` [AMD3497, N-[1,4,8,11-Tetraazacyclotetradecanyl-1,4-phenylenebis(methylene)]-2-(amino-ethyl)pyridine], the cytotoxic concentration (CC50) in series [1] is >250 µg/mL. Besides, in series [2], the “EC50 HIV-1 (IIIB)” value was 1.8 µg/mL (≈ 4.24 µM). Also, in series [3], the “EC50 HIV-2” value stood at 3.8 µg/mL (≈ 8.95 µM).
